target: T1, 11β-HSD1 (Homo sapiens, UniProt P28845); test: In vitro inhibition of 11β-HSD1, HTRF detection of cortisol generated from cortisone by human liver microsomes; type: biochemical; details: 11β-HSD IC50 (nM), 1 hour at 37° C., pH 6.0, NADPH 200 μM, cortisone 80 nM, inhibition relative to carbenoxolone signal
T1 construct: detecting cortisol generated from cortisterone by human liver microsomes; from tissue; host or cells: human liver microsomes
Method in brief: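 Cortisol formed from cortisone by human liver microsomes quantified by competitive HTRF immunoassay (XL665-cortisol, Eu-cryptate anti-cortisol antibody), 2 h detection, Em665/Em615 ratio converted via cortisol calibration curve. Percent inhibition relative to carbenoxolone signal; IC50 from curves.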

T1 sequence (P28845 whole entry): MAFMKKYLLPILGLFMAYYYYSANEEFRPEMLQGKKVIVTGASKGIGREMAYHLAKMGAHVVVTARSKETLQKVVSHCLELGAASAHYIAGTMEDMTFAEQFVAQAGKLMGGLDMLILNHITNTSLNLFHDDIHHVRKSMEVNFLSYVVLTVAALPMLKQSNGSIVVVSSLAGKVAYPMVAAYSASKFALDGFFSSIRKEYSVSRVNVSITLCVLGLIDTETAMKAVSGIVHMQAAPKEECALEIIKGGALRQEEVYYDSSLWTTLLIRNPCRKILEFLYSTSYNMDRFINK

| SMILES | IC50 |
| --- | --- |
| CC(=O)Nc1ccc(C(=O)N2CC[C@@]3(C)c4cccc(O)c4C[C@@H]2C3(C)C)cc1 [Example 15, N-{4-[(2R,6S)-10-Hydroxy-6,11,11-trimethyl-1,2,5,6-tetrahydro-4H-2,6-methano-benzo[d]azocine-3-carbonyl]-phenyl}-acetamide] | 354 nM |
| CC1(C)[C@H]2Cc3c(O)cccc3[C@]1(C)CCN2C(=O)c1ccc(N2CCOCC2)cc1 [Example 25, [(2R,6S)-10-Hydroxy-6,11,11-trimethyl-1,2,5,6-tetrahydro-4H-2,6-methano-benzo[d]azocin-3-yl]-(4-morpholin-4-yl-phenyl)-methanone] | 686 nM |
| CC(C)(C)c1nc2cc3c(cc2o1)C[C@H]1N(C(=O)c2ccc4nc[nH]c4c2)CC[C@]3(C)C1(C)C [Example 312, (3H-Benzoimidazol-5-yl)-[(6R,10S)-2-tert-butyl-5,6,7,8,9,10-hexahydro-10,12,12-trimethyl-6,10-methano-oxazolo[4,5-i][3]benzazocin-7-yl]-methanone] | 103 nM |
| CN(C)S(=O)(=O)c1ccc2c(c1)[C@]1(C)CCN(C(=O)c3ccc4nc[nH]c4c3)[C@H](C2)C1(C)C [Example 201, (2R,6S)-3-(3H-Benzoimidazole-5-carbonyl)-6,11,11-trimethyl-1,2,3,4,5,6-hexahydro-2,6-methano-benzo[d]azocine-8-sulfonic acid dimethylamide] | 53 nM |
| CCC12CCN(C(=O)c3ccc4nc[nH]c4c3)C(Cc3ccc(O)cc31)C2(C)C (centres unmarked) [Example 89, (3H-Benzoimidazol-5-yl)-(6-ethyl-8-hydroxy-11,11-dimethyl-1,2,5,6-tetrahydro-4H-2,6-methano-benzo[d]azocin-3-yl)-methanone] | 62 nM |
| COc1ccc2c(c1-n1cccc1)[C@]1(C)CCN(C(=O)c3ccc4nc[nH]c4c3)[C@H](C2)[C@H]1C [Example 270, (3H-Benzoimidazol-5-yl)-[(2R,6R,11S)-8-methoxy-6,11-dimethyl-7-pyrrol-1-yl-1,2,5,6-tetrahydro-4H-2,6-methano-benzo[d]azocin-3-yl)-methanone] | 99 nM |
| C[C@@H]1[C@H]2Cc3cc4nc[nH]c4cc3[C@]1(C)CCN2C(=O)c1ccc2nc[nH]c2c1 [Example 224, (3H-Benzoimidazol-5-yl)-[(6R,10R,12S)-5,6,7,8,9,10-hexahydro-10,12-dimethyl-6,10-methano-1H-imidazo[5,4-i][3]benzazocin-7-yl]-methanone] | 21 nM |
| CC1(C)[C@H]2Cc3c(O)cccc3[C@]1(C)CCN2C(=O)c1ccc(C(=O)NCc2ccccc2)cc1 [Example 137, N-Benzyl-4-[(2R,6S)-10-hydroxy-6,11,11-trimethyl-1,2,5,6-tetrahydro-4H-2,6-methano-benzo[d]azocine-3-carbonyl]-benzamide] | 3620 nM |
| CC1(C)[C@H]2Cc3c(O)cccc3[C@]1(C)CCN2C(=O)c1ccncc1Cl [Example 144, (3-Chloro-pyridin-4-yl)-[(2R,6S)-10-hydroxy-6,11,11-trimethyl-1,2,5,6-tetrahydro-4H-2,6-methano-benzo[d]azocin-3-yl]-methanone] | 2560 nM |
| COC(=O)c1cc(Cl)cc(C(=O)N2CC[C@@]3(C)c4cccc(O)c4C[C@@H]2C3(C)C)c1 [Example 42, 3-Chloro-5-[(2R,6S)-10-hydroxy-6,11,11-trimethyl-1,2,5,6-tetrahydro-4H-2,6-methano-benzo[d]azocine-3-carbonyl]-benzoic acid methyl ester] | 4530 nM |
| CCN(CC)Cc1ccc(C(=O)N2CC[C@@]3(C)c4cccc(O)c4C[C@@H]2C3(C)C)cc1 [Example 119, (4-Diethylaminomethyl-phenyl)-[(2R,6S)-10-hydroxy-6,11,11-trimethyl-1,2,5,6-tetrahydro-4H-2,6-methano-benzo[d]azocin-3-yl]-methanone] | 1550 nM |
| CC1(C)[C@H]2Cc3c(F)cccc3[C@]1(C)CCN2C(=O)c1ccc2nc[nH]c2c1 [Example 140, (3H-Benzoimidazol-5-yl)-[(2R,6S)-10-fluoro-6,11,11-trimethyl-1,2,5,6-tetrahydro-4H-2,6-methano-benzo[d]azocin-3-yl]-methanone] | 48 nM |
| COC[C@H]1CCCN1C(=O)c1cccc(C(=O)N2CC[C@@]3(C)c4cccc(O)c4C[C@@H]2C3(C)C)c1 [Example 40, [(2R,6S)-10-Hydroxy-6,11,11-trimethyl-1,2,5,6-tetrahydro-4H-2,6-methano-benzo[d]azocin-3-yl]-[3-((R)-2-methoxymethyl-pyrrolidine-1-carbonyl)-phenyl]-methanone] | 542 nM |
| C[C@@H]1[C@H]2Cc3ccc(-c4nnn[nH]4)cc3[C@]1(C)CCN2C(=O)c1ccc2nc[nH]c2c1 [Example 228, (2R,6R,11S)-(3H-Benzoimidazol-5-yl)-[6,11-dimethyl-8-(1H-tetrazol-5-yl)-1,2,5,6-tetrahydro-4H-2,6-methano-benzo[d]azocin-3-yl]-methanone] | 236 nM |
| CC12CCN(C(=O)c3ccc4nc[nH]c4c3)C(Cc3ccc(F)cc31)C2(C)C (centres unmarked) [Example 70, (3H-Benzoimidazol-5-yl)-(8-fluoro-6,11,11-trimethyl-1,2,5,6-tetrahydro-4H-2,6-methano-benzo[d]azocin-3-yl)-methanone] | 362 nM |
| Cc1nnc(-c2ccc3c(c2)[C@]2(C)CCN(C(=O)c4ccc5nc[nH]c5c4)[C@H](C3)[C@H]2C)o1 [Example 332, (3H-Benzoimidazol-5-yl)-[(2R,6R,11S)-6,11-dimethyl-8-(5-methyl-[1,3,4]oxadiazol-2-yl)-1,2,5,6-tetrahydro-4H-2,6-methano-benzo[d]azocin-3-yl]-methanone] | 64 nM |
| Cc1cnc(-c2nc3cc4c(cc3[nH]2)[C@]2(C)CCN(C(=O)c3ccc5nc[nH]c5c3)[C@H](C4)C2(C)C)cn1 [Example 277, (3H-Benzoimidazol-5-yl)-[(6R,10S)-5,6,7,8,9,10-hexahydro-10,12,12-trimethyl-2-(5-methyl-pyrazin-2-yl)-6,10-methano-imidazo[5,4-i][3]benzazocin-7-yl]-methanone] | 34 nM |
| CC1(C)[C@H]2Cc3cc4nc(-c5cccnc5)[nH]c4cc3[C@]1(C)CCN2C(=O)c1ccc2nc[nH]c2c1 [Example 274, (3H-Benzoimidazol-5-yl)-[(6R,10S)-5,6,7,8,9,10-hexahydro-10,12,12-trimethyl-2-pyridin-3-yl-6,10-methano-imidazo[5,4-i][3]benzazocin-7-yl]-methanone] | 51 nM |
| Cc1ccccc1C(=O)N1CCC2(C)c3cc(O)ccc3CC1C2C (centres unmarked) [Example 106, (8-Hydroxy-6,11-dimethyl-1,2,5,6-tetrahydro-4H-2,6-methano-benzo[d]azocin-3-yl)-o-tolyl-methanone] | 2960 nM |
| CCNC(=O)c1ccc(C(=O)N2CC[C@@]3(C)c4cccc(O)c4C[C@@H]2C3(C)C)cc1 [Example 138, N-Ethyl-4-[(2R,6S)-10-hydroxy-6,11,11-trimethyl-1,2,5,6-tetrahydro-4H-2,6-methano-benzo[d]azocine-3-carbonyl]-benzamide] | 2810 nM |
| COc1cccc2[nH]cc(C(=O)N3CC[C@@]4(C)c5cccc(O)c5C[C@@H]3C4(C)C)c12 [Example 195, [(2R,6S)-10-Hydroxy-6,11,11-trimethyl-1,2,5,6-tetrahydro-4H-2,6-methano-benzo[d]azocin-3-yl]-(4-methoxy-1H-indol-3-yl)-methanone] | 2480 nM |
| CC(C)(O)c1cccc(C(=O)N2CC[C@@]3(C)c4ccccc4C[C@@H]2C3(C)C)c1 [Example 317, [3-(1-Hydroxy-1-methyl-ethyl)-phenyl]-[(2R,6S)-6,11,11-trimethyl-1,2,5,6-tetrahydro-4H-2,6-methano-benzo[d]azocin-3-yl]-methanone] | 217 nM |
| COc1ccc2c(c1[N+](=O)[O-])[C@]1(C)CCN(C(=O)c3ccc4nc[nH]c4c3)[C@H](C2)[C@H]1C [Example 261, (3H-Benzoimidazol-5-yl)-[(2R,6R,11S)-8-methoxy-6,11-dimethyl-7-nitro-1,2,5,6-tetrahydro-4H-2,6-methano-benzo[d]azocin-3-yl]-methanone] | 47 nM |
| COc1ccccc1C(=O)N1CC[C@@]2(C)c3cccc(O)c3C[C@@H]1C2(C)C [Example 6, [(2R,6S)-10-Hydroxy-6,11,11-trimethyl-1,2,5,6-tetrahydro-4H-2,6-methano-benzo[d]azocin-3-yl)-(2-methoxy-phenyl]-methanone] | 1060 nM |
| Cn1nnc2cc3c(cc21)[C@]1(C)CCN(C(=O)c2ccc4nc[nH]c4c2)[C@H](C3)C1(C)C [Example 257, (3H-Benzoimidazol-5-yl)-[(6R,10S)-5,6,7,8,9,10-hexahydro-1,10,12,12-tetramethyl-6,10-methano-triazolo[5,4-i][3]benzazocin-7-yl]-methanone] | 209 nM |
| CC1(C)[C@H]2Cc3c(O)cccc3[C@]1(C)CCN2C(=O)c1ccc2c(c1)OCCO2 [Example 20, (2,3-Dihydro-benzo[1,4]dioxin-6-yl)-[(2R,6S)-10-hydroxy-6,11,11-trimethyl-1,2,5,6-tetrahydro-4H-2,6-methano-benzo[d]azocin-3-yl]-methanone] | 254 nM |
| N#CC12CCN(C(=O)c3ccc4nc[nH]c4c3)C(Cc3ccc(O)cc31)C2 (centres unmarked) [Example 226, 3-(3H-Benzoimidazole-5-carbonyl)-8-hydroxy-2,3,4,5-tetrahydro-1H-2,6-methano-benzo[d]azocine-6-carbonitrile] | 1410 nM |

same assay, conditions: 1 hour at 37° C., pH 6.0, NADPH 200 μM, cortisone 80 nM, inhibition relative to carbenoxolone signal, read-out: 11β-HSD IC50

| SMILES | IC50 |
| --- | --- |
| C[C@H]1[C@H]2CC3=CC(C#N)CC=C3[C@]1(C)CCN2C(=O)c1ccc2nc[nH]c2c1 (stereo partly drawn) [Example 236, (2R,6R,11R)-3-(3H-Benzoimidazole-5-carbonyl)-6,11-dimethyl-1,2,3,4,5,6,8,9-octahydro-2,6-methano-benzo[d]azocine-9-carbonitrile] | 189 nM |
| CC12CCCN(C(=O)c3ccc4nc[nH]c4c3)C(Cc3ccccc31)C2 (centres unmarked) [Example 324, (3H-Benzoimidazol-5-yl)-(1-methyl-10-aza-tricyclo[7.4.1.0*2,7*]tetradeca-2,4,6-trien-10-yl)-methanone] | 121 nM |

— patent US8859580B2 (Boehringer Ingelheim International GmbH, priority 2007, dated 2014)
